# Test results published in publication PMC10914731, “Homo-BacPROTAC-induced degradation of ClpC1 as a strategy against drug-resistant mycobacteria” (Nature Communications, 2024).
# Where “and” joins values, the source holds several entries; their conditions need not be identical. Equal values may be shown once. Read-outs that look alike come from different tables or passages of the source. *1 amine or outer side, *2 acyl side, *3 side chain or, on linkers, in order; H or OH if unused. Where a SMILES comes first, the peptide text is derived from it. [ ]: non-standard residue; d: D form. X5 = C=CCn1cc(C[C@@H](C(=O)[*:2])N(C)[*:1])c2ccccc21; NMeLeu(5-OH,4R) = CN[C@@H](C[C@@H](C)CO)C(=O)O; Phe(βR-OMe) = CO[C@H](c1ccccc1)[C@H](N)C(=O)O; NMeL = CN[C@@H](CC(C)C)C(=O)O
# Assays:
# [1] = test system: Mycobacterium intracellulare; assay: microbe, parasite or virus in culture; assay type: cell-based
# [2] = test system: Mycobacterium avium; assay: microbe, parasite or virus in culture; assay type: cell-based
# [3] = test system: Mycobacterium fortuitum; assay: microbe, parasite or virus in culture; assay type: cell-based
# [4] = test system: Mycobacterium abscessus; assay: microbe, parasite or virus in culture; assay type: cell-based
# [5] = Microsomal stability, human; assay type: in vitro ADME
# Experimental: (§1) The kinetics of compound degradation in liver microsomes is assessed in an assay with 1 µmol/l of compound and 0.5 mg/ml liver microsomes in a medium of 100 mM Tris-HCl pH 7.5, 6.5 mM MgCl2 and 1 mM NADPH at 37 °C. The reaction is stopped at multiple time points by adding acetonitrile. After centrifugation, the compound concentration is measured in the supernatants by high-performance liquid chromatography (HPLC) tandem mass spectrometry (MS/MS). The results are fitted to a first-order decay and the half-lives are converted to clearance (stated as % of the liver blood flow (%Qh)) using the well-stirred liver model.
# [6] = assay type: in vitro ADME, Rat
# Experimental: (§2) Cryopreserved hepatocytes are incubated in an appropriate buffer system containing 50% species serum. Following an acclimation period (15–30 min) in an incubator (37 °C, 5−10% CO2, 85–95% humidity) the test compound is added to the hepatocyte suspension (pH 7.4, typical cell density of about 1 million cells/mL; final concentration of test compound is 1 µM, final DMSO concentration <0.05% v/v). The cells are incubated for up to 6 h and samples are taken at 6 different time points. Samples are then quenched with acetonitrile and pelleted by centrifugation. The remaining amount of parent compound in the supernatants is then analysed by HPLC-MS/MS. Clearance is calculated from compound half-lives using the well-stirred liver model and is converted to clearance stated as % of the liver blood flow (% Qh).
# [7] = assay type: in vitro ADME, Rat; remark: listed apart in the source
# Experimental: as §1
# [8] = test system: Caco-2 monolayers; assay: in vitro
# Excerpt: (§3) Supplementary Table 1. Structure-Activity Relationships part 1 (SPR, Caco-2) […]
# (§4) SPR. Mean values ± standard deviation. Footnotes indicate the number of measurements performed for the respective compound: a) n = […]
# (§5) [5] Permeability across Caco-2 monolayers in P(A−B): apical to basolateral and P(B−A): basolateral to apical direction (values reported in 10-
# (§6) 6 cm s-1); efflux ratio = P(B−A)/P(A−B); Int. perm: mean value of P(A−B) and P(B−A). […] Influence of Trp-Nα methylation on P(A-B) and efflux
# (§7) ratio. Bold: positive influence.
# [9] = in vitro; details: human
# Excerpt: as §3, §4, §5, §6, §7
# [10] = Hepatocyte stability, mice; assay type: in vitro ADME
# Experimental: as §2
# [11] = assay type: in vitro ADME, Human
# Experimental: as §2
# [12] = target: ClpC1 NTD protein (M. tuberculosis) (Mycobacterium tuberculosis, UniProt P9WPC9); assay: biochemical; assay type: binding
# Chain of ClpC1 NTD protein (M. tuberculosis) (P9WPC9 1-156, looked up, natural form): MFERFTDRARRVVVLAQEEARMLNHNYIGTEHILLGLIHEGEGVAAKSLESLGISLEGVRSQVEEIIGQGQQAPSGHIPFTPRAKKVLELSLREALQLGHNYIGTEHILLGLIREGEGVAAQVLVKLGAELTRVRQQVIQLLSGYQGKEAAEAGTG
# [13] = test system: Mtb # 8673; assay: microbe, parasite or virus in culture; assay type: cell-based
# [14] = test system: Mtb # 11291; assay: microbe, parasite or virus in culture; assay type: cell-based; details: for MIC: read-out: MIC Mtb # 11291
# [15] = test system: Mtb ATCC 35825; assay: microbe, parasite or virus in culture; assay type: cell-based
# [16] = Experiment 2, three replicate columns
# [17] = Mycobacterium tuberculosis, mean, n = 2 well replicates
# [18] = Mycobacterium tuberculosis, single well replicates
smiles,measurement,setting,value
"CC[C@H]1OC(=O)[C@H](C)[C@@H](O[C@H]2C[C@@](C)(OC)[C@@H](O)[C@H](C)O2)[C@H](C)[C@@H](O[C@@H]2O[C@H](C)C[C@H](N(C)C)[C@H]2O)[C@](C)(OC)C[C@@H](C)C(=O)[C@H](C)[C@@H](O)[C@]1(C)O [Clarithromycin, reference compound]",MIC (µg/ml) Mycobacterium intracellulare,[1]; [16],0.13 µg/mL
same,MIC,"[1]; Experiment 2, three replicate columns, read-out: MIC (µM) Mycobacterium intracellulare",0.17 µM
same,MIC,"[1]; Mycobacterium intracellulare, Experiment 2, three replicate columns, read-out: MIC (µM) Mycobacterium intracellulare",0.17 µM
same,MIC,"[1]; Mycobacterium intracellulare, Experiment 2, three replicate columns, read-out: MIC (µg/ml) Mycobacterium intracellulare",0.13 µg/mL
same,MIC,"[1]; Mycobacterium intracellulare, mean ± SD, read-out: MIC Mycobacterium intracellulare",0.2 µM
same,MIC (µg/ml) Mycobacterium avium,[2]; [16],0.25 µg/mL
same,MIC,"[2]; Experiment 2, three replicate columns, read-out: MIC (µM) Mycobacterium avium",0.33 µM
same,MIC,"[2]; Mycobacterium avium, Experiment 2, three replicate columns, read-out: MIC (µM) Mycobacterium avium",0.33 µM
same,MIC,"[2]; Mycobacterium avium, Experiment 2, three replicate columns, read-out: MIC (µg/ml) Mycobacterium avium",0.25 µg/mL
same,MIC,"[2]; Mycobacterium avium, mean ± SD, read-out: MIC Mycobacterium avium",0.3 µM
same,MIC (µg/ml) Mycobacterium fortuitum,[3]; [16],0.50 µg/mL
same,MIC,"[3]; Experiment 2, three replicate columns, read-out: MIC (µM) Mycobacterium fortuitum",0.67 µM
same,MIC,"[3]; Mycolicibacterium fortuitum, Experiment 2, three replicate columns, read-out: MIC (µM) Mycobacterium fortuitum",0.67 µM
same,MIC,"[3]; Mycolicibacterium fortuitum, Experiment 2, three replicate columns, read-out: MIC (µg/ml) Mycobacterium fortuitum",0.5 µg/mL
same,MIC,"[3]; Mycolicibacterium fortuitum, mean ± SD, read-out: MIC Mycobacterium fortuitum",0.7 µM
same,MIC (µg/ml) Mycobacterium abscessus,[4]; [16],0.50 µg/mL
same,MIC,"[4]; Experiment 2, three replicate columns, read-out: MIC (µM) Mycobacterium abscessus",0.67 µM
same,MIC,"[4]; Mycobacteroides abscessus, Experiment 2, three replicate columns, read-out: MIC (µM) Mycobacterium abscessus",0.67 µM
same,MIC,"[4]; Mycobacteroides abscessus, Experiment 2, three replicate columns, read-out: MIC (µg/ml) Mycobacterium abscessus",0.5 µg/mL
same,MIC,"[4]; Mycobacteroides abscessus, mean ± SD, read-out: MIC Mycobacterium abscessus",0.7 µM
"C=CCn1cc(C[C@H]2C(=O)N(C)[C@@H](C[C@@H](C)CO)C(=O)N[C@@H](C)C(=O)N[C@@H]([C@H](OC)c3ccccc3)C(=O)N[C@@H](C(C)C)C(=O)N(C)[C@@H](CC(C)C)C(=O)N[C@@H](C(C)C)C(=O)N2C)c2ccccc21 [SI-60] (cyclo(A[Phe(βR-OMe)]V[NMeL]V[X5][NMeLeu(5-OH,4R)]))",Microsomal Stability Human QH,[5]; Human,>88.400%
same,Microsomal Stability Human,[5]; clearance in microsomes,> 88 %Qh
same,Hepatocyte Stability Rat QH,[6]; Rat,57.215%
same,Hepatocyte Rat,[6]; clearance in hepatocytes,57 %Qh
same,Microsomal Stability Rat QH,[7]; Rat,>87.900%
same,Microsomal Stability Rat,[7]; clearance in microsomes,> 88 %Qh
same,CACO permeability PEAB,[8]; apical to basolateral,35 ×10⁻⁶ cm/s
same,CACO permeability PEBA,[8]; basolateral to apical,88 ×10⁻⁶ cm/s
same,Permeability Correlation P (A-B),"[8]; influence of Trp-Nα methylation on P(A-B), matched pair, listed under the methylated partner",14.6
same,Permeability Correlation Ratio,"[8]; influence of Trp-Nα methylation on efflux ratio, matched pair, listed under the methylated partner",3.2
same,Caco-2 Int. Perm,[8]; mean value of P(A−B) and P(B−A),61.5 10-6 cm s-1
same,efflux ratio,[9]; Caco-2,2.5
same,Papp A→B,"[9]; Caco-2, CACO permeability PEAB, apical to basolateral",46 ×10⁻⁶ cm/s
same,Papp B→A,"[9]; Caco-2, CACO permeability PEBA, basolateral to apical",49 ×10⁻⁶ cm/s
same,Hepatocyte Stability Mouse QH,[10]; Mouse,61.367%
same,Hepatocyte Mice,[10]; clearance in hepatocytes,61 %Qh
same,Hepatocyte Stability Human QH,[11]; Human,50.176%
same,Hepatocyte Human,[11]; clearance in hepatocytes,50 %Qh
same,Kd,"[12]; SPR (Supplementary Table 1), read-out: KD ClpC1-NTD Mean ± SD",8 ± 3 nM
same,koff ClpC1-NTD,"[12]; SPR, single independent measurements",0.04 s⁻¹
same,Kd,"[12]; SPR, single independent measurements, read-out: KD ClpC1-NTD",9.87 nM and 5.93 nM
same,koff,"[12]; SPR, single independent measurements, read-out: koff ClpC1-NTD",0.03 s⁻¹
[H]/N=C(/N)N[C@H]1[C@H](O)[C@@H](O)[C@H](O[C@@H]2O[C@@H](C)[C@](O)(C=O)[C@H]2O[C@@H]2O[C@@H](CO)[C@H](O)[C@@H](O)[C@@H]2NC)[C@@H](N/C(N)=N\[H])[C@@H]1O [Streptomycin],MIC,[13]; [17],6.9 µM and 4 µg/mL
same,MIC,[13]; [18],6.88 µM and 4 µg/mL
same,MIC,[13]; single well replicates,6.88 µM
same,MIC Mtb # 8673,[13]; single well replicates,4 µg/mL
same,MIC,[14]; [17],0.4 µM and 0.3 µg/mL
same,MIC,[14]; [18],0.43 µM and 0.25 µg/mL
same,MIC Mtb # 11291,[14]; single well replicates,0.25 µg/mL
same,MIC,[14]; single well replicates,0.43 µM
same,MIC,"[15]; Mycobacterium tuberculosis, ATCC35825, mean, n = 2 well replicates",27.5 µM and 16 µg/mL
same,MIC,"[15]; Mycobacterium tuberculosis, ATCC35825, single well replicates",16 µg/mL and 27.5 µM
same,MIC,[15]; single well replicates,27.51 µM
same,MIC Mtb ATCC 35825,[15]; single well replicates,16 µg/mL
